Here are results for twelve compounds from patent publication US8003660B2, “Modulators of muscarinic receptors” (Vertex Pharmaceuticals Incorporated, priority 2006, dated 2011).

Common to all, as to format: cell-based
The target of test [1] is T1, M3 muscarinic receptor (Homo sapiens, UniProt P20309).
T1 construct: expressed in transfected cells; host or cells: CHO (M3-CHO)
The test is described as follows: Functional mobilization of intracellular calcium (FLIPR) in CHO cells expressing M3. To be noted: for M3 Activity: CHO cells expressing M3, FLIPR calcium assay; for Emax: CHO, 100% efficacy = maximum response obtained with the Carbachol control. The gist of the method: (§1)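 Calcium flux is read on FLIPR over 60 sec at 488/540 nm in muscarinic-receptor CHO lines. Antagonist mode adds carbachol at EC80 after 15 min compound preincubation or with simultaneous co-application. Agonist mode adds compound alone. Cells carry Fluo-3 or Calcium 3 dye in probenecid-containing pH 7.4 buffer, 0.5% DMSO final.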

Test [2] concerns the target T2, M4 muscarinic receptor (Homo sapiens, UniProt P08173).
T2 construct: expressed in transfected cells; host or cells: CHO (M4-CHO)
T2 sequence (P08173 1-479): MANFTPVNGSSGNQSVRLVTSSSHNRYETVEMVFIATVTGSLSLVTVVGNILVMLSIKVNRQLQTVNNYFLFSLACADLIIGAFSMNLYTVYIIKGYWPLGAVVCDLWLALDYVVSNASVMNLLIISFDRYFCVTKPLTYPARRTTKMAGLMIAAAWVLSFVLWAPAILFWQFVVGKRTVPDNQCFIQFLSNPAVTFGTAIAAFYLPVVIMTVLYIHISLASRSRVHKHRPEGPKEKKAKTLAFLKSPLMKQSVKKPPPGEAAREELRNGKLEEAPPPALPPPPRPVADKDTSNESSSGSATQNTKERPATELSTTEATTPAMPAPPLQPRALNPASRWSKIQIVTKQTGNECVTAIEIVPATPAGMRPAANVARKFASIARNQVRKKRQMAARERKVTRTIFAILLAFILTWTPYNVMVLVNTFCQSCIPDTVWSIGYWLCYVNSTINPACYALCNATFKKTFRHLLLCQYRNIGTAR
The test can be described thus: Functional mobilization of intracellular calcium (FLIPR) in CHO cells expressing M4. To be noted: for M4 Activity: CHO cells expressing M4, FLIPR calcium assay; for Emax: CHO, 100% efficacy = maximum response obtained with the Carbachol control. The essentials:
as §1

Test [3] addresses T3, M1 muscarinic receptor (Homo sapiens, UniProt P11229).
T3 construct: expressed in transfected cells; host or cells: CHO (M1-CHO)
T3 sequence (P11229 1-460): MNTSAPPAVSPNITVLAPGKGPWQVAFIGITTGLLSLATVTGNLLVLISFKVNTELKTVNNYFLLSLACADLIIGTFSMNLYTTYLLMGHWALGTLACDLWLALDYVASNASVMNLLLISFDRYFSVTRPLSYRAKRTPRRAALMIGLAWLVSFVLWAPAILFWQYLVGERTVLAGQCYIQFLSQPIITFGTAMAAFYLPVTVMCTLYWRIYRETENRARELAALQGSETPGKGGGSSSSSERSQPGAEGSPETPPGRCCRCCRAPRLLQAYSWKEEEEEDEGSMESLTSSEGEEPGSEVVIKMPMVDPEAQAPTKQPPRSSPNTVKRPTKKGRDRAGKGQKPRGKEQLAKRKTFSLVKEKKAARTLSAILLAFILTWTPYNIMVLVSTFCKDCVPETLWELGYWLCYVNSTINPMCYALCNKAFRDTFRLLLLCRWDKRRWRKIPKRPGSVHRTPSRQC
The test is described as follows: Functional mobilization of intracellular calcium (FLIPR) in CHO cells expressing M1. To be noted: for M1 Activity: CHO cells expressing M1, FLIPR calcium assay; for Emax: CHO, 100% efficacy = maximum response obtained with the Carbachol control. The essentials:
as §1

The target in test [4] is T4, M2 muscarinic receptor (Homo sapiens, UniProt P08172).
T4 construct: expressed in transfected cells; host or cells: CHO (M2-CHO)
T4 sequence (P08172 1-466): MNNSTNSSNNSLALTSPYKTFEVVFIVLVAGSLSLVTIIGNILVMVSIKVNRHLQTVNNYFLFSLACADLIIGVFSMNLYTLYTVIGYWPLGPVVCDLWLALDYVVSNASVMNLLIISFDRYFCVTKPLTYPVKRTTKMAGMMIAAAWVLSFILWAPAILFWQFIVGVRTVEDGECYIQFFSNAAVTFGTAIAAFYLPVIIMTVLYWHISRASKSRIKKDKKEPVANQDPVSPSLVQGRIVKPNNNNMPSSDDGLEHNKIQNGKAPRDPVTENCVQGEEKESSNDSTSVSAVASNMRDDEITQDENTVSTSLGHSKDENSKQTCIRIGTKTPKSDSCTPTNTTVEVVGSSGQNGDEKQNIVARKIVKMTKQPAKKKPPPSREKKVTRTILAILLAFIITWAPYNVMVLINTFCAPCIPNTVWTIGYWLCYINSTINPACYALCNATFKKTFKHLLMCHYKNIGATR
The test is described as follows: Functional mobilization of intracellular calcium (FLIPR) in CHO cells expressing M2. Particulars: for M2 Activity: CHO cells expressing M2, FLIPR calcium assay; for Emax: CHO, 100% efficacy = maximum response obtained with the Carbachol control. The essentials:
as §1

T1 sequence (P20309 whole entry): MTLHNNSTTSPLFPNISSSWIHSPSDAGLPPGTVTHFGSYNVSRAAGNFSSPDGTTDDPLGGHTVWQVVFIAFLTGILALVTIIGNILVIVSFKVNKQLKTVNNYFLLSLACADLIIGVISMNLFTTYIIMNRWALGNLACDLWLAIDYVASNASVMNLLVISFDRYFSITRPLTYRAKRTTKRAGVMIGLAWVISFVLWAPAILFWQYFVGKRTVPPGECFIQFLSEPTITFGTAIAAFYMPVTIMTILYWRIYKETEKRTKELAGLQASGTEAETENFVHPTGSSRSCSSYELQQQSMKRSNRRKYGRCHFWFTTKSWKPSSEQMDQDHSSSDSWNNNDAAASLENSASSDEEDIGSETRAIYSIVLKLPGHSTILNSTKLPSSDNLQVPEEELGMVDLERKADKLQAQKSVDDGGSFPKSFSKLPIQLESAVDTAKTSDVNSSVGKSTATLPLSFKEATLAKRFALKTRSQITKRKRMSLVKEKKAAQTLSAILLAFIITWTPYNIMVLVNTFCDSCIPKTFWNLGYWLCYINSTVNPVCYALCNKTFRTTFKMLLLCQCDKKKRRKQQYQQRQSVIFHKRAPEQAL

`Cn1nccc1C(=O)N[C@H]1CCC2(CCN(CCC(C)(C)C)CC2)c2ccccc21` [compound 193]: in test [1], the “M3 Activity” value is “+ (activity was measured to be greater than 5.0 μM)” and the Emax is < 25%. For the same compound, in test [2], the “M4 Activity” value is “+++ (activity was measured to be less than 2.0 μM)” and the Emax was in the range of 25 to 100%. In addition, in test [3], the “M1 Activity” value is given as “+++ (activity was measured to be less than 2.0 μM)” and the maximal response (Emax) is 25 to 100%. In test [4], the “M2 Activity” value is “+ (activity was measured to be greater than 5.0 μM)” and the maximal effect (Emax) was < 25%.
As for `CC(=O)N1CCC[C@H]1C(=O)N[C@H]1CCC2(CCN(CCC(C)(C)C)CC2)c2ccccc21` [compound 194], in test [1], the “M3 Activity” value is on record as “+ (activity was measured to be greater than 5.0 μM)” and the Emax is < 25%. In test [2], the “M4 Activity” value was “+++ (activity was measured to be less than 2.0 μM)” and the maximal response (Emax) was in the range of 25 to 100%. Besides, in test [3], the “M1 Activity” value is given as “+++ (activity was measured to be less than 2.0 μM)” and the Emax was 25 to 100%. Further, in test [4], the “M2 Activity” value was “+ (activity was measured to be greater than 5.0 μM)” and the Emax is < 25%.
On to `CC(C)(C)CCN1CCC2(CC[C@H](NC(=O)Cc3cccnc3)c3ccccc32)CC1` [compound 195], for which, in test [1], the “M3 Activity” value is “+ (activity was measured to be greater than 5.0 μM)” and the Emax is < 25%. Further, in test [2], the “M4 Activity” value is given as “+++ (activity was measured to be less than 2.0 μM)” and the Emax was in the range of 25 to 100%. In test [3], the “M1 Activity” value is “+++ (activity was measured to be less than 2.0 μM)” and the Emax is 25 to 100%. Besides, in test [4], the “M2 Activity” value is given as “+++ (activity was measured to be less than 2.0 μM)” and the Emax was in the range of 25 to 100%.
For the compound `CCOCC(=O)N[C@H]1CCC2(CCN(CCC(C)(C)C)CC2)c2cc(F)ccc21` [compound 196], in test [1], the “M3 Activity” value is on record as “+ (activity was measured to be greater than 5.0 μM)” and the Emax is < 25%. Also, in test [2], the “M4 Activity” value is on record as “+++ (activity was measured to be less than 2.0 μM)” and the Emax is 25 to 100%. In test [3], the “M1 Activity” value is recorded as “+++ (activity was measured to be less than 2.0 μM)” and the maximal effect (Emax) is 25 to 100%. Besides, in test [4], the “M2 Activity” value is reported as “+++ (activity was measured to be less than 2.0 μM)” and the maximal response (Emax) was in the range of 25 to 100%.
Take `CC(C)(C)CCN1CCC2(CC[C@H](NC(=O)CCCN3CCCC3=O)c3ccccc32)CC1` [compound 197]: in test [1], the “M3 Activity” value is on record as “+ (activity was measured to be greater than 5.0 μM)” and the maximal effect (Emax) was < 25%. Further, in test [2], the “M4 Activity” value is on record as “+++ (activity was measured to be less than 2.0 μM)” and the Emax lay within 25 to 100%. In addition, in test [3], the “M1 Activity” value is “+++ (activity was measured to be less than 2.0 μM)” and the maximal response (Emax) is 25 to 100%. Moreover, in test [4], the “M2 Activity” value is recorded as “+++ (activity was measured to be less than 2.0 μM)” and the Emax is 25 to 100%.
For `CCN(C(=O)Cc1ccccn1)[C@H]1CCC2(CCN(CCC(C)(C)C)CC2)c2ccccc21` [compound 198], in test [1], the “M3 Activity” value is given as “+ (activity was measured to be greater than 5.0 μM)” and the Emax is < 25%. Moreover, in test [2], the “M4 Activity” value is listed as “+++ (activity was measured to be less than 2.0 μM)” and the Emax was 25 to 100%. For the same compound, in test [3], the “M1 Activity” value is recorded as “+++ (activity was measured to be less than 2.0 μM)” and the Emax is 25 to 100%. Moreover, in test [4], the “M2 Activity” value is on record as “++ (activity was measured to be from 2.0 μM to 5.0 μM)” and the Emax was < 25%.
Regarding `CCOC(=O)N(C)[C@H]1CCC2(CCN(CCC(C)(C)C)CC2)c2ccccc21` [compound 199], in test [1], the “M3 Activity” value is given as “+ (activity was measured to be greater than 5.0 μM)” and the Emax is < 25%. Further, in test [2], the “M4 Activity” value was “+++ (activity was measured to be less than 2.0 μM)” and the maximal response (Emax) lay in the range of 25 to 100%. Besides, in test [3], the “M1 Activity” value is “++ (activity was measured to be from 2.0 μM to 5.0 μM)” and the Emax was < 25%. Further, in test [4], the “M2 Activity” value is listed as “+ (activity was measured to be greater than 5.0 μM)” and the Emax was < 25%.
With `CC(=O)NCC(=O)N[C@@H]1CCC2(CCN(CCC(C)(C)C)CC2)c2cc(F)ccc21` [compound 200], in test [1], the “M3 Activity” value is given as “+ (activity was measured to be greater than 5.0 μM)” and the Emax is < 25%. Moreover, in test [2], the “M4 Activity” value is reported as “+++ (activity was measured to be less than 2.0 μM)” and the Emax is 25 to 100%. In test [3], the “M1 Activity” value is reported as “+++ (activity was measured to be less than 2.0 μM)” and the Emax was 25 to 100%. Besides, in test [4], the “M2 Activity” value is “+++ (activity was measured to be less than 2.0 μM)” and the Emax fell in the range of 25 to 100%.
Turning to `CC(C)(C)CCN1CCC2(CC[C@H](NC(=O)C3CCOCC3)c3ccc(F)cc32)CC1` [compound 202], in test [1], the “M3 Activity” value was “+ (activity was measured to be greater than 5.0 μM)” and the Emax was < 25%. In test [2], the “M4 Activity” value was “+++ (activity was measured to be less than 2.0 μM)” and the Emax lay within 25 to 100%. For the same compound, in test [3], the “M1 Activity” value is recorded as “+++ (activity was measured to be less than 2.0 μM)” and the Emax fell in the range of 25 to 100%. Besides, in test [4], the “M2 Activity” value is given as “+ (activity was measured to be greater than 5.0 μM)” and the Emax is < 25%.
For the compound `CC(C)(C)CCN1CCC2(CC[C@H](NC(=O)[C@H]3CCC(=O)N3)c3ccc(F)cc32)CC1` [compound 203], in test [1], the “M3 Activity” value is “+ (activity was measured to be greater than 5.0 μM)” and the Emax was < 25%. In test [2], the “M4 Activity” value is recorded as “+++ (activity was measured to be less than 2.0 μM)” and the maximum response (Emax) was in the range of 25 to 100%. Further, in test [3], the “M1 Activity” value is “+++ (activity was measured to be less than 2.0 μM)” and the Emax was in the range of 25 to 100%. Moreover, in test [4], the “M2 Activity” value is on record as “+++ (activity was measured to be less than 2.0 μM)” and the Emax was 25 to 100%.
As to `CC(=O)N[C@H]1CCC2(CCN(C(C)CC(C)(C)C)CC2)c2ccccc21` (stereo partly drawn) [compound 204], in test [1], the “M3 Activity” value is given as “+ (activity was measured to be greater than 5.0 μM)” and the Emax was < 25%. Moreover, in test [2], the “M4 Activity” value is reported as “+++ (activity was measured to be less than 2.0 μM)” and the Emax was in the range of 25 to 100%. In addition, in test [3], the “M1 Activity” value is given as “+++ (activity was measured to be less than 2.0 μM)” and the Emax was 25 to 100%. Further, in test [4], the “M2 Activity” value was “+ (activity was measured to be greater than 5.0 μM)” and the Emax was < 25%.
For the compound `CC(=O)CCC(=O)N[C@@H]1CCC2(CCN(CCC(C)(C)C)CC2)c2ccccc21` [compound 205], in test [1], the “M3 Activity” value was “+ (activity was measured to be greater than 5.0 μM)” and the Emax was < 25%. In test [2], the “M4 Activity” value is “+++ (activity was measured to be less than 2.0 μM)” and the Emax lay in the range of 25 to 100%. In addition, in test [3], the “M1 Activity” value is “+++ (activity was measured to be less than 2.0 μM)” and the maximum response (Emax) is 25 to 100%. In addition, in test [4], the “M2 Activity” value was “+ (activity was measured to be greater than 5.0 μM)” and the Emax is < 25%.
